# Assay results: PMC7367873, “Dissecting the sequence determinants for dephosphorylation by the catalytic subunits of phosphatases PP1 and PP2A” (Nature Communications, 2020)
# Tests used:
# [1] = system: mKate2-GAB2 localization in SW-480 cells; test: GAB2 recruitment to the plasma membrane, live-cell confocal microscopy, SW-480; type: cell-based, human; settings: SW-480, starved, 12 min; EGF 100 ng/mL; PDP-Nal/PDPm-Nal 50 µM; n = 20/19/26 cells for EGF/PDP-Nal/PDPm-Nal
# Protocol: (§1) The cells were seeded on 8-well ibiTreat µslides (Ibidi) and transfected as described in the respective section. In order to serum-starve cells for 45 min to 1 h before imaging, cells were washed twice with warm PBS and cultivated in 200 µL DMEM without FBS and phenol red (Gibco) supplemented with 1 g/L L-glutamine and 1% penicillin/streptomycin. For imaging, cells were then mounted in an Okolab stage incubator system (37 °C, 5% CO2 using an H101-CRYO-BL temperature controller, CO2-O2 UNIT-BL gas controller, H101-HM active humidity controller and incubation chamber H101-NIKON-TI-S-ER). All images were acquired with the A1R Confocal Scanning System equipped on a Nikon Ti-E inverted microscope installed with an Apo TIRF 100x DIC N2 1.49 NA Oil objective. […] Images were acquired using the GaAsP detectors controlled with the NIS Elements 4.50 operating software. Time-lapse-experiments consisted of an image acquisition interval of 15 s for at least 12 min for each sample condition separately using an exposure time of 0.5 frames per second. […]
# (§2) Supplementary Figure 8. […] For Caco-2 BBe1 the following number (n) of cells were analyzed: 19 (EGF), 13 (PDP-Nal), 13 (PDPm-Nal); for SW-480: 20 (EGF), 19 (PDP-Nal), […]
# [2] = system: mKate2-GAB2 localization in Caco-2 BBe1 cells; test: GAB2 recruitment to the plasma membrane, live-cell confocal microscopy, Caco-2 BBe1; type: cell-based, human; settings: Caco-2 BBe1, starved, 12 min; EGF 100 ng/mL; PDP-Nal/PDPm-Nal 50 µM; n = 19/13/13 cells for EGF/PDP-Nal/PDPm-Nal
# Protocol: as §1, §2
# [3] = system: mKate2-GAB2 localization in HeLa Kyoto cells; test: GAB2 recruitment to the plasma membrane, live-cell confocal microscopy, HeLa Kyoto; type: cell-based, human; settings: starved, 5 min, EGF 100 ng/mL, PDP-Nal/PDPm-Nal 50 µM, n = 44/56/31 cells for EGF/PDP-Nal/PDPm-Nal
# Protocol: The cells were seeded on 8-well ibiTreat µslides (Ibidi) and transfected as described in the respective section. In order to serum-starve cells for 45 min to 1 h before imaging, cells were washed twice with warm PBS and cultivated in 200 µL DMEM without FBS and phenol red (Gibco) supplemented with 1 g/L L-glutamine and 1% penicillin/streptomycin. For imaging, cells were then mounted in an Okolab stage incubator system (37 °C, 5% CO2 using an H101-CRYO-BL temperature controller, CO2-O2 UNIT-BL gas controller, H101-HM active humidity controller and incubation chamber H101-NIKON-TI-S-ER). All images were acquired with the A1R Confocal Scanning System equipped on a Nikon Ti-E inverted microscope installed with an Apo TIRF 100x DIC N2 1.49 NA Oil objective. […] Images were acquired using the GaAsP detectors controlled with the NIS Elements 4.50 operating software. Time-lapse-experiments consisted of an image acquisition interval of 15 s for at least 12 min for each sample condition separately using an exposure time of 0.5 frames per second. Cells were treated after frame 3 by adding 100 µL of starvation media (see above) with 300 ng/mL EGF (Gibco) or 150 µM PDP(m)-Nal resulting in final concentrations of 100 ng/mL for EGF and 50 µM for PDPs.
# For image analysis, microscopy files were loaded into Fiji v2.0.0-rc-34/1.50a. […]
# PP1/PP2A = settings: 20 nM Calyculin A in cell culture medium and lysis buffer; ref PMID 30338897; cited from earlier work
# Excerpt: page 8: an adjusted p-value <0.01 are highlighted in bold in the heat-map comparing PP1c/PP2Ac. […] Furthermore, this new comparison also brought to our attention an apparently very strong differential effect of Pro in +1. We have therefore synthesized the Cterm peptide AAAApTPFGAK. Like in the case of ba ...
# [4] = system: GAB2/GFP-14-3-3β interaction; test: GAB2/14-3-3 binding assay (GFP-14-3-3β pull-down, Western blot); set-up: species or system human
# Protocol: pEGFP(C1)-14-3-3β or pCMV-GAB2-3FLAG was transfected into HeLa Kyoto cells as described in the respective section for 24 h. Cells were incubated with or w/o 20 nM Calyculin A (# 9902 S, Cell Signaling Technology) in complete growth media for 12 min. Cells were washed twice on ice with cold PBS and after addition of 500 µL lysis buffer (100 mM NaCl, 10 mM Tris, 0.1% IGEPAL, 1 mM EDTA, 1 mM EGTA, 20 nM Calyculin A, 1x cOmplete Mini protease inhibitor cocktail (Sigma), 2 mM DTT, 2 mM MnCl2) cells were scraped from plates, lysed by 10 pushes through an injection needle and the insoluble fraction was pelleted by centrifugation (10 min, 10^4 rcf, 4 °C). Supernatants were then subjected to incubation with 1 µM recombinant PP1c (if not indicated otherwise) or buffer for 1 h at 30 °C. […] Next, we subjected samples to immunoprecipitation/pull-down using 25 µL of α-FLAG M2 magnetic bead slurry (Sigma-Aldrich) or an equal volume of bead-coupled α-GFP nanobodies (EMBL PEPcore Core Facility) for 2 h at 4 °C. Beads were then washed three times with lysis buffer and samples were eluted in 1x SDS sample buffer by heating to 95 °C for 10 min and further analyzed by SDS PAGE for 14-3-3/GAB2 association and phosphorylation status of GAB2-pS210.
# For SDS-PAGE, samples were loaded on NuPAGE™ 4-12% Bis-Tris protein gels (Invitrogen) and gel electrophoresis was performed at 180 V constant in 1x MOPS buffer. Samples were transferred onto CN blotting membranes (0.45 µm, neoLab) by wet blotting. Membranes were stained using Ponceau, followed by blocking with Tris-buffered saline with 0.1% Tween (TBS-T) containing 5% (w/v) non-fat milk for 45 min at room temperature. After three washes (5 min), membranes were then incubated with the following antibodies in TBS-T with 5% BSA overnight at 4 °C: α-GFP (1:2000, Abcam, ab6556), α-GAB2 (1:1000, CST, #3239), α-GAB2-pS210 (1:250, Symansis, customized purification), α-FLAG (1:1000, M2, Sigma-Aldrich, F3165), α-pan14-3-3 (1:500, SCBT, sc-629), α-PP1 (1:1000, SCBT, sc-7482), α-PP2A (1:1000, SCBT, sc-130237) or α-6His (1:2000, Abcam, ab9108). Afterwards blots were washed three times in TBS-T and incubated with goat anti-mouse IgG-peroxidase conjugate (1:2500, Sigma, A0168), donkey anti-rabbit IgG-horseradish peroxidase (HRP) conjugate (1:2500, GE Healthcare, GENA934), or rabbit anti-sheep IgG (H + L) HRP conjugate (1:2500, Thermo Fisher Scientific, 61-8620) for 2 h at room temperature. […] All blots were quantified using raw images and ImageLab software (v6.0.1, BioRad): Files were imported and analyzed without further modifications. […] The quantification was exported from the analysis table and measurements of background adjusted band volumes where used for further normalization steps and graphical depiction. […]
# GAB2-pS210 = test: In vitro dephosphorylation of GAB2-pS210 (Western blot); type: biochemical, human; settings: GAB2-pS210 relative to GAB2, Calyculin A 20 nM 12 min in HeLa Kyoto cells, recombinant PP1c 1 µM, 1 h at 30 °C in lysate
# Protocol: pEGFP(C1)-14-3-3β or pCMV-GAB2-3FLAG was transfected into HeLa Kyoto cells as described in the respective section for 24 h. Cells were incubated with or w/o 20 nM Calyculin A (# 9902 S, Cell Signaling Technology) in complete growth media for 12 min. Cells were washed twice on ice with cold PBS and after addition of 500 µL lysis buffer (100 mM NaCl, 10 mM Tris, 0.1% IGEPAL, 1 mM EDTA, 1 mM EGTA, 20 nM Calyculin A, 1x cOmplete Mini protease inhibitor cocktail (Sigma), 2 mM DTT, 2 mM MnCl2) cells were scraped from plates, lysed by 10 pushes through an injection needle and the insoluble fraction was pelleted by centrifugation (10 min, 10^4 rcf, 4 °C). […] Beads were then washed three times with lysis buffer and samples were eluted in 1x SDS sample buffer by heating to 95 °C for 10 min and further analyzed by SDS PAGE for 14-3-3/GAB2 association and phosphorylation status of GAB2-pS210.
# For SDS-PAGE, samples were loaded on NuPAGE™ 4-12% Bis-Tris protein gels (Invitrogen) and gel electrophoresis was performed at 180 V constant in 1x MOPS buffer. […] All blots were quantified using raw images and ImageLab software (v6.0.1, BioRad): Files were imported and analyzed without further modifications. […] The quantification was exported from the analysis table and measurements of background adjusted band volumes where used for further normalization steps and graphical depiction. […]
compound,measurement,setting,value
EGF: epidermal growth factor (Gibco),GAB2 recruitment to the plasma membrane,[1],GAB2 recruitment to the plasma membrane
same,GAB2 recruitment to the plasma membrane,[2],GAB2 recruitment to the plasma membrane
same,GAB2 recruitment to the plasma membrane,[3],GAB2 recruitment to the plasma membrane
"COC[C@@H]([C@H](O)[C@H](O)C(=O)NCC[C@H](C)c1nc(/C=C/C[C@@H]2O[C@]3(C[C@@H](O)[C@@H]2C)O[C@H]([C@H](C[C@H](O)[C@H](C)[C@H](O)[C@H](C)/C=C(C)/C(C)=C/C=C/C(C)=C\C#N)OC)[C@H](OP(=O)(O)O)C3(C)C)co1)N(C)C [Calyculin A, reference compound]",stabilization of phosphorylation of PP1/PP2A substrate sites (such as Ser259 of CRAF/Raf-1),PP1/PP2A,stabilize
same,interaction of GAB2 with overexpressed GFP-14-3-3β,"[4]; Calyculin A 20 nM in cells, recombinant PP1c in lysate 1 h at 30 °C, PP1c-concentration-dependent, three independent experiments",strongly increased
same,"interaction of GAB2 with GFP-14-3-3β, PP1c pre-inhibited",[4]; recombinant PP1c mixed with equimolar Calyculin A for 5–10 min before addition to lysate,abolishes the effect
same,p-level of GAB2 pS210,GAB2-pS210,increased
